This is an account of results in patent US20040234531A1, “Chimeric human leukocyte antigen and epitope-bearing molecules having immunosuppressant activity” (priority 2001, published 2004).

Assay [1] relates to lymph node cells from GAD65-immunized HLA-DR4 transgenic mice. The assay is described as follows: Proliferation and cytokines of lymph node cells from HLA-DR4 transgenic mice immunized with p271-285 GAD65 peptide. The format is cell-based, mouse. How it is done: (§1) FIG. 9A-C. Potency of human DEF molecules in activating murine specific T cells. (A) Lymph node cells (3×10^5) from HLA-DR4 transgenic mice immunized with p271-285 GAD65 peptide were cultured for five dats in the presence of spleen cells (2×10^5) from naive HLA-DR4 mice and 5, 10 or 15 μg/ml of GAD65 peptide or 0.05, 0.5 or 1 μg/ml of DEF-GAD65. (B) Using the same protocol as for (A), cells from mice immunized withp73-90 proinsulin peptide wee stimulated with the same doses of proinsulin peptide or DEF-Pi. […] The proliferative responses are expressed as Δcpm=specific cpm−background cpm.
(§2) HLA-DR*0401 +/+, Abb −/− mice ([…], Taconic, Germantown, N.Y.) expressthe α1β1 domains of HLA-DR*0401 linked to the α2β2 domains of I-E^d, and at the same time are deficient for endogenous MHC class II (1-A^b, I-E^b) molecules (Abb −/−).
(§3) Groups of five mice were immunized in the footpads with either 100 micrograms of p271-285 GAD65 peptide or p73-90 proinsulin peptide in Complete Freund's Adjuvant (“CFA”). Lymph nodes were harvested ten days later and cells from GAD65-immunized mice were stimulated in vitro with various doses of p271-285 synthetic peptide, DEF-GAD65 or empty DEF molecules. […] The amount of peptide carried by the human DEF molecules was normalized on a molar basis, and the immunopotency determined as described in Casares et al., 1999, 3. […]

Assay [2] concerns lymph node cells from proinsulin-immunized HLA-DR4 transgenic mice. The assay is described as follows: Proliferation and cytokines of lymph node cells from HLA-DR4 transgenic mice immunized with p73-90 proinsulin peptide. In kind it is cell-based, mouse. How it is done:
as §1, §2, §3

As to “GAD65 peptide PRLIAFTSEHSHFSL (SEQ ID NO:10) (listed as Homo sapiens) [p271-285]”, in assay [1] (cells from GAD65-immunized mice, read-out: Half-maximal proliferation of stimulated cells), the EC50 was found to be 1 µM. Further, the “cytokine production in culture supernatants” value in assay [1] (day 5, ELISA) is recorded as “also secreted IL-10”.

With “proinsulin peptide GAGSLQPLALEGSLQKRG (SEQ ID NO: 43) (listed as Homo sapiens) [p73-90]”, in assay [2] (cells from proinsulin-immunized mice, read-out: Half-maximal proliferation of stimulated cells), the EC50 was 2.5 µM. Besides, in assay [2] (day 5, ELISA), the “cytokine production in culture supernatants” value is given as “secreted IL-2 but not IL-10”.
